Experimental data as given in patent US20230212163A1, “2-(HET)ARYL-SUBSTITUTED CONDENSED HETEROCYCLIC DERIVATIVES AS PEST CONTROL AGENTS” (Bayer Aktiengesellschaft, priority 2020, published 2023).

Tests used:
Format in all cases: in vivo
Diabrotica balteata = Diabrotica balteata spray test; conditions: after 7 days; for pest or weed control at 500 g/ha: application rate 500 g/ha (=160 μg/cavity); for pest or weed control at 20 g/ha: application rate 20 g/ha
Method: [table] To produce a suitable active compound formulation, 1 part by weight of active compound is dissolved using the stated parts by weight of solvent and made up with water containing an emulsifier concentration of 1000 ppm until the desired concentration is attained. To produce further test concentrations, the formulation is diluted with emulsifier-containing water. Pre-swollen wheat grains (Triticum aestivum) are incubated in a multiwell plate filled with agar and a little water for one day (5 seed grains per cavity). The germinated wheat grains are sprayed with an active compound formulation of the desired concentration. Subsequently, each cavity is infected with 10-20 beetle larvae of Diabrotica balteata. After 7 days, the efficacy in % is determined. 100% means that all wheat plants have grown as in the untreated, uninfected control; 0% means that no wheat plant has grown.

Spodoptera frugiperda = Spodoptera frugiperda spray test (maize leaf discs); conditions: application rate 100 g/ha, after 7 days; for pest or weed control at 100 g/ha: Spodoptera frugiperda, foliar, 168 h
Method: [table] To produce a suitable active compound formulation, 1 part by weight of active compound is dissolved using the stated parts by weight of solvent and made up with water containing an emulsifier concentration of 1000 ppm until the desired concentration is attained. To produce further test concentrations, the formulation is diluted with emulsifier-containing water. Leaf discs of maize (Zea mays) are sprayed with an active compound formulation of the desired concentration and, after drying, populated with caterpillars of the fall armyworm (Spodoptera frugiperda). After 7 days, the efficacy in % is determined. 100% means that all the caterpillars have been killed; 0% means that no caterpillar has been killed.

Nezara viridula = Nezara viridula spray test; conditions: application rate 500 g/ha, after 4 days; for pest or weed control at 500 g/ha: Nezara viridula, 96 h
Method: [table] To produce a suitable active compound formulation, 1 part by weight of active compound is dissolved using the stated parts by weight of solvent and made up with water containing an emulsifier concentration of 1000 ppm until the desired concentration is attained. To produce further test concentrations, the formulation is diluted with emulsifier-containing water. Barley plants (Hordeum vulgare) are sprayed with an active compound formulation of the desired concentration and are infected with larvae of the Southern green shield bug (Nezara viridula). After 4 days, the efficacy in % is determined. 100% means that all of the shield bugs have been killed; 0% means that none of the shield bugs have been killed.

[1] = Diabrotica balteata, 168 h, read-out: efficacy
[2] = Diabrotica balteata, 168 h, application rate 100 g/ha

SMILES | pest or weed control at 100 g/ha (Spodoptera frugiperda) [%] | pest or weed control at 20 g/ha (Diabrotica balteata; Diabrotica balteata, 168 h) [%] | pest or weed control at 100 g/ha (Diabrotica balteata; [2]) [%] | also measured
CCS(=O)(=O)c1ccc(-n2ncn(-c3ccc(F)cc3)c2=O)nc1-c1nc2cc(S(=O)(=O)C(F)(F)Cl)ccc2o1 [Example I-07] | 100 |  |  | pest or weed control at 31.25 g/ha (Diabrotica balteata; Diabrotica balteata, 168 h, application rate 31.25 g/ha (=10 μg/cavity), read-out: efficacy): 100%; pest or weed control at 125 g/ha (Diabrotica balteata; Diabrotica balteata, 168 h, application rate 125 g/ha (=40 μg/cavity), read-out: efficacy): 100%; pest or weed control at 500 g/ha (Diabrotica balteata; [1]): 100%
CCS(=O)(=O)c1ccc(-n2ncn(-c3ccc(Cl)cc3)c2=O)nc1-c1nc2cc(S(=O)(=O)C(F)(F)Cl)ccc2o1 [Example I-08] | 100 | 100 | 80 | pest or weed control at 500 g/ha (Diabrotica balteata; [1]): 100%
CCS(=O)(=O)c1ccc(-n2ncn(-c3ccc(Br)cc3)c2=O)nc1-c1nc2cc(S(=O)(=O)C(F)(F)Cl)ccc2o1 [Example I-09] | 100 | 80 |  | 
CCS(=O)(=O)c1ccc(-n2ncn(-c3ccc(C#N)cc3)c2=O)nc1-c1nc2cc(S(=O)(=O)C(F)(F)Cl)ccc2o1 [Example I-10] |  | 80 | 100 | pest or weed control at 500 g/ha (Diabrotica balteata; [1]): 100%
CCS(=O)(=O)c1ccc(-n2ncn(-c3ccc(I)cc3)c2=O)nc1-c1nc2cc(S(=O)(=O)C(F)(F)Cl)ccc2o1 [Example I-11] | 100 |  | 100 | pest or weed control at 500 g/ha (Diabrotica balteata; [1]): 100%
CCS(=O)(=O)c1ccc(-n2ncn(-c3ccc(I)cc3)c2=O)nc1-c1nc2cc(S(=O)(=O)C(F)(F)F)ccc2o1 [Example I-12] | 100 | 100 | 100 | pest or weed control at 500 g/ha (Diabrotica balteata; [1]): 100%
CCS(=O)(=O)c1ccc(-n2ncn(-c3cccc(Cl)c3)c2=O)nc1-c1nc2cc(S(=O)(=O)C(F)(F)F)ccc2o1 [Example I-13] | 100 | 100 | 100 | pest or weed control at 500 g/ha (Diabrotica balteata; [1]): 100%
CCS(=O)(=O)c1ccc(-n2ncn(-c3cccc(Br)c3)c2=O)nc1-c1nc2cc(S(=O)(=O)C(F)(F)F)ccc2o1 [Example I-15] | 100 | 100 | 100 | pest or weed control at 500 g/ha (Diabrotica balteata; [1]): 100%
CCS(=O)(=O)c1ccc(-n2ncn(-c3ccc(C4(C#N)CC4)cc3)c2=O)nc1-c1nc2cc(S(=O)(=O)C(F)(F)F)ccc2o1 [Example I-17] |  | 100 | 100 | pest or weed control at 500 g/ha (Diabrotica balteata; [1]): 100%
CCS(=O)(=O)c1ccc(-n2ncn(-c3ccc(Cl)c(Br)c3)c2=O)nc1-c1nc2cc(S(=O)(=O)C(F)(F)F)ccc2o1 [Example I-19] | 100 | 100 | 100 | 
CCS(=O)(=O)c1ccc(-n2ncn(-c3ccc(Br)c(Cl)c3)c2=O)nc1-c1nc2cc(S(=O)(=O)C(F)(F)F)ccc2o1 [Example I-20] | 100 | 100 | 100 | 
CCS(=O)(=O)c1ccc(-n2ncn(-c3ccc(Cl)cc3)c2=O)nc1-c1nc2cc(OC(F)(F)C(F)(F)F)ccc2o1 [Example I-21] | 100 |  | 100 | 
CCS(=O)(=O)c1ccc(-n2ncn(-c3ccc(F)cc3)c2=O)nc1-c1nc2cc(OC(F)(F)C(F)(F)F)ccc2o1 [Example I-22] | 100 | 100 | 100 | 
CCS(=O)(=O)c1ccc(-n2ncn(-c3ccc(Br)cc3)c2=O)nc1-c1nc2cc(OC(F)(F)C(F)(F)F)ccc2o1 [Example I-23] | 100 |  | 100 | 
CCS(=O)(=O)c1ccc(-n2ncn(-c3cccc(F)c3)c2=O)nc1-c1nc2cc(OC(F)(F)C(F)(F)F)ccc2o1 [Example I-24] | 100 | 100 | 100 | 
CCS(=O)(=O)c1ccc(-n2ncn(-c3cccc(Cl)c3)c2=O)nc1-c1nc2cc(OC(F)(F)C(F)(F)F)ccc2o1 [Example I-25] | 100 | 100 | 100 | 
CCS(=O)(=O)c1ccc(-n2ncn(-c3cccc(Br)c3)c2=O)nc1-c1nc2cc(OC(F)(F)C(F)(F)F)ccc2o1 [Example I-26] | 100 | 100 | 100 | 
CCS(=O)(=O)c1ccc(-n2ncn(-c3ccc(C#N)c(Cl)c3)c2=O)nc1-c1nc2cc(S(=O)(=O)C(F)(F)F)ccc2o1 [Example I-28] | 100 | 100 |  | 

SMILES | pest or weed control at 100 g/ha (Spodoptera frugiperda) [%] | pest or weed control at 20 g/ha (Diabrotica balteata; Diabrotica balteata, 168 h) [%] | pest or weed control at 100 g/ha (Diabrotica balteata; [2]) [%] | also measured
CCS(=O)(=O)c1ccc(-n2ncn(-c3cccc(C#N)c3)c2=O)nc1-c1nc2cc(OC(F)(F)C(F)(F)F)ccc2o1 [Example I-30] | 100 | 100 | 100 | 
CCS(=O)(=O)c1ccc(-n2ncn(-c3cccc(C4(C#N)CC4)c3)c2=O)nc1-c1nc2cc(OC(F)(F)C(F)(F)F)ccc2o1 [Example I-31] | 100 | 100 |  | 
CCS(=O)(=O)c1ccc(-n2ncn(-c3ccc(F)cc3)c2=O)nc1-c1nc2cc(OC(F)(F)F)ccc2o1 [Example I-33] |  |  |  | pest or weed control at 500 g/ha (Nezara viridula): 100%
CCS(=O)(=O)c1ccc(-n2ncn(-c3ccc(F)cc3)c2=O)nc1-c1nc2cc(C(F)(F)F)ncc2o1 [Example I-35] |  |  |  | pest or weed control at 500 g/ha (Nezara viridula): 100%
CCS(=O)(=O)c1ccc(-n2ncn(-c3ccc(F)cc3)c2=O)nc1-c1nc2cc(C(F)(F)F)ccc2o1 [Example I-36] |  |  |  | pest or weed control at 500 g/ha (Nezara viridula): 100%
CCS(=O)(=O)c1ccc(-n2ncn(C3CCCC3)c2=O)nc1-c1nc2cc(C(F)(F)C(F)(F)F)ccc2o1 [Example I-38] | 100 |  |  | 
CCS(=O)(=O)c1ccc(-n2ncn(C3CC3C(F)(F)F)c2=O)nc1-c1nc2cc(S(=O)(=O)C(F)(F)F)ccc2o1 (centres unmarked) [Example I-39] | 100 |  | 100 | pest or weed control at 500 g/ha (Nezara viridula): 100%
CCS(=O)(=O)c1ccc(-n2ncn(-c3cncc(F)c3)c2=O)nc1-c1nc2cc(S(=O)(=O)C(F)(F)F)ccc2o1 [Example I-40] | 100 |  | 100 | 
CCS(=O)(=O)c1ccc(-n2ncn(-c3cccc(Cl)c3)c2=O)nc1-c1nc2cc(S(=O)(=O)C(F)(F)C(F)(F)F)ccc2o1 [Example I-41] | 100 | 100 | 100 | pest or weed control at 500 g/ha (Nezara viridula): 100%
CCS(=O)(=O)c1ccc(-n2ncn(-c3cccc(Cl)c3)c2=O)nc1-c1nc2cc(S(=O)(=O)C(F)(F)C(F)(F)F)ccc2o1 [Example I-42] |  |  |  | activity (Nezara viridula): 90%; activity (Diabrotica balteata; application rate 100 g/ha): 80%; activity (Spodoptera frugiperda): 100%
CCS(=O)(=O)c1ccc(-n2ncn(-c3cccc(Br)c3)c2=O)nc1-c1nc2cc(C(F)(F)C(F)(F)F)ccc2o1 [Example I-44] | 100 | 80 | 100 | pest or weed control at 500 g/ha (Nezara viridula): 100%
CCS(=O)(=O)c1ccc(-n2ncn(-c3ccc(Br)cc3)c2=O)nc1-c1nc2cc(C(F)(F)C(F)(F)F)ccc2o1 [Example I-48] | 100 |  | 100 | 
CCS(=O)(=O)c1ccc(-n2ncn(C3CC3)c2=O)nc1-c1nc2cc(OC(F)(F)C(F)(F)F)ccc2o1 [Example I-49] | 100 | 100 | 80 | 
CCS(=O)(=O)c1ccc(-n2ncn(C3CC3)c2=O)nc1-c1nc2cc(C(F)(F)C(F)(F)F)ccc2o1 [Example I-50] | 100 | 100 | 100 | 
CCS(=O)(=O)c1ccc(-n2ncn(-c3ccc(Cl)cc3)c2=O)cc1-c1nc2cc(Br)ccc2o1 [Example I-53] | 100 |  | 100 | 
CCS(=O)(=O)c1ccc(-n2ccn(-c3cccc(C4(C#N)CC4)c3)c2=O)nc1-c1nc2cc(C(F)(F)C(F)(F)F)ccc2o1 [Example I-54] | 100 | 100 | 100 | 
CCS(=O)(=O)c1ccc(-n2ncn(-c3ccc(F)cn3)c2=O)nc1-c1nc2cc(S(=O)(=O)C(F)(F)F)ccc2o1 [Example I-55] | 100 |  | 100 | 
